# Results as given in patent EP2070549A1, “THERAPEUTIC AGENT FOR ACCELERATION OF SPINAL NERVE REPAIR COMPRISING DESACYL GHRELIN OR DERIVATIVE THEREOF AS ACTIVE INGREDIENT” (University of Miyazaki, priority 2006, dated 2008).
# Experiments:
# [1] = test system: rat models with injured spinal cord; experiment: Grafting of spinal neuronal cells and local administration of des-acyl ghrelin to rat models with injured spinal cord, frequency of standing up; format: in vivo; settings: for frequency of a rat standing up per unit time: 3-minute observation
# Procedure: In accordance with the procedure described in Morino, T. et al, Neuroscience Research, 2003, vol. 46, pp 309-318, the grafting of spinal neuronal cells and local administration of des-acyl ghrelin to rat models with injured spinal cord were assessed. Male SD rats (8 to 9 weeks old) were anesthetized with pentobarbital and incised in the back to expose a vertebra ([…]). After excising the vertebral arch, a dental drill was used to open a window with a diameter of […], and a stainless steel needle with a silicone rubber fixed thereto was applied vertically, followed by loading of the top with a 20-g weight. Following a compression time of 30 minutes, a damaging drop equivalent to a weight of about 100 g was finally applied from above to construct models suffering a movement disorder in the lower limbs. The animals were divided into three groups: 1) a group under sham operation; 2) a control group with injured spinal cord; and 3) a group with injured spinal cord, treated by cell grafting, and locally administered with des-acyl ghrelin. The group under sham operation received laminectomy but was simply sutured in the muscle and skin thereafter. After injuring the spinal cord, cultured spinal neuronal cells (10^5 cells/25 µL) were grafted subdurally. Rat des-acyl ghrelin was administered subdurally in an amount of 1 nmol together with the cells.
# Twenty-four hours after the operation, the rats were transferred into a see-through cage and observed for the frequency of their standing up (by 3-minute observation). The principal item of observation was the frequency per unit time of the rat standing up (in such a posture that it lifted the upper limbs and supported the body weight only with the lower limbs) was counted to assess the function of its hind limbs.
# [2] = test system: cultured fetal spinal neuronal cells; experiment: BrdU positive cells by anti-BrdU immunostaining in cultured fetal spinal neuronal cells (Example 2); format: cell-based, rat; settings: compared to physiological saline, FIG. 2B, 2C
# Procedure: • (1) Embryos were extracted from a pregnant Wistar rat at day 17 under anesthesia. Spinal cords were collected from these embryos and subjected to papain digestion in Hank's balanced salt solution; as a result of subsequent mechanical separation by pipetting, a dispersion of fetal spinal neurons was obtained. […] These dispersed cells were suspended in a DMEM medium containing NaHCO3, 5% fetal bovine serum, penicillin (100 U/mL) and streptomycin (100 µg/mL), followed by plating onto laminin-coated 96-well multi-plates at 10^5 cells per well. […]
# • (3) After the end of the above incubation (1), the cells were fixed with methanol and glacial acetic acid, had their DNA denatured with 2 N HCl; thereafter, the BrdU incorporated into the cells was measured by detecting the BrdU positive cells using a rat anti-BrdU monoclonal antibody (1:1000, Abcam, Cambridge, UK) as a primary antibody, and also using Cy™ 3-conjugated donkey anti-rat IgG polyclonal antibody (1:1000, Jackson ImmunoResearch Laboratories, Inc., PA, USA) as a secondary antibody, in order to investigate the action for proliferating spinal cord cells. […]
# [3] = test system: des-acyl ghrelin specific binding sites in the membrane fractions of fetal spinal cord; experiment: Binding of [125I]-labelled des-acyl ghrelin to membrane fractions of fetal spinal cord (saturation and competition); parameters: species or system rat; settings: competition with 0.1 nM labeled des-acyl ghrelin
# Procedure: For instance, the identity of a substance that acts on a des-acyl ghrelin specific binding site, namely, the identity of a substance having binding activity for a des-acyl ghrelin specific binding site can be determined, as will be described later in Example 1, by first preparing samples from a tissue of interest (e.g., membrane fractions prepared from an extracted spinal cord tissue), then incubating the sample in the presence of a test substance, with or without an added radioactive ligand such as [^125I]-labeled des-acyl ghrelin, measuring the radioactivity of the samples, and analyzing the values obtained. For analysis of the values, techniques known to skilled artisans may be employed, as exemplified by the method of Scatchard and a program such as GraphPAD Prism 4 program, which are applied to calculate the maximum number of binding sites (Bmax) and the dissociation constant (Kd). The des-acyl ghrelin specific binding sites are yet to be characterized specifically but one place of their occurrence is in rat spinal cord cells, in particular, on rat spinal cord cell membranes. […]
# With [^125I]-labelled des-acyl ghrelin used as a radioactive ligand, the binding of des-acyl ghrelin to the tissue membranes of fetal spinal cord was studied. […] The radioactivity of the membranes on the filters was measured with a gamma counter. […]
# [4] = test system: cultured spinal neuronal cells; experiment: BrdU incorporation into cultured spinal neuronal cells, Cell Proliferation ELISA (Example 3); format: cell-based, rat; settings: for BrdU incorporation into the cells, Mean: n 6, Control = 100.0
# Description: Embryos were extracted from a pregnant Wistar rat at day 16 by opening the abdomen under anesthesia. Spinal cords were collected from these embryos and subjected to papain digestion in Hank's balanced salt solution; as a result of subsequent mechanical separation by pipetting, a dispersion of fetal spinal nerve cells was obtained. After being filtered and centrifuged, the dispersed cells were suspended in a DMEM medium containing NaHCO3, 5% fetal bovine serum, penicillin (100 U/mL) and streptomycin (100 µg/mL), followed by plating onto laminin-coated 96-well multi-plates at 10^5 cells per well. After incubation for 4 days, 5-bromo-2'-deoxyuridine (BrdU) (10 µM) was added and incubation was conducted for 6 hours; further, rat des-acyl ghrelin, des-acyl ghrelin(1-5)-NH2 (GSSFL-NH2, SEQ ID NO:22), des-acyl ghrelin(1-7)-NH2 (GSSFLSP-NH2, SEQ ID NO:23) or des-acyl ghrelin(1-15)-NH2 (GSSFLSPEHQRVQQR-NH2, SEQ ID NO:24) was added in amounts of 0.03 - 3 nM and incubation was conducted for 12 hours before investigating the action of des-acyl ghrelin and its derivatives on BrdU incorporation.
# After the end of incubation, the cells were recovered and using Cell Proliferation ELISA Kit (Roche Diagnostic GmbH, Mannheim, Germany), the amount of BrdU incorporation into the cells was measured to investigate the action for proliferating the spinal neuronal cells.
# [5] = test system: cultured fetal spinal neuronal cells; experiment: BrdU incorporation into cultured fetal spinal neuronal cells, Cell Proliferation ELISA (Example 2); format: cell-based, rat; settings: 0.03-300 nM tested, 12 hours, then BrdU 6 hours; FIG. 2A
# Procedure: • (1) Embryos were extracted from a pregnant Wistar rat at day 17 under anesthesia. Spinal cords were collected from these embryos and subjected to papain digestion in Hank's balanced salt solution; as a result of subsequent mechanical separation by pipetting, a dispersion of fetal spinal neurons was obtained. […] These dispersed cells were suspended in a DMEM medium containing NaHCO3, 5% fetal bovine serum, penicillin (100 U/mL) and streptomycin (100 µg/mL), followed by plating onto laminin-coated 96-well multi-plates at 10^5 cells per well. After incubation for 4 days, des-acyl ghrelin (0.03-300 nM) was added to the culture and incubation was conducted for 12 hours; then, 5-bromo-2'-deoxyuridine (BrdU) ([…]) was added and incubation was conducted for an additional 6 hours; then, the des-acyl ghrelin was investigated for its action on BrdU incorporation.
# • (2) After the end of the above incubation, the cells were recovered and using Cell Proliferation ELISA Kit (Roche Diagnostic GmbH, Mannheim, Germany), the amount of BrdU incorporation into the fetal spinal neuronal cells was measured to investigate the action for proliferating the spinal neuronal cells.
# [6] = biological target: des-acyl ghrelin specific binding sites in membrane fractions of rat fetal spinal cord (rat); experiment: competition with 0.1 nM [125I]-des-acyl ghrelin on rat fetal spinal cord membranes
# [7] = biological target: des-acyl ghrelin specific binding sites in membrane fractions of rat fetal spinal cord (rat); experiment: saturation radioligand binding, rat fetal spinal cord membranes, Scatchard/GraphPAD Prism
substance,measurement,setting,value
Des-acyl ghrelin,frequency of a rat standing up per unit time,"[1]; 24 hours after operation, 1 nmol subdurally together with grafted cells (10^5 cells/25 µL)",8.0 ± 0.0
same,frequency of a rat standing up per unit time,[1]; Initial (before operation),15.0 ± 2.0
same,frequency of standing up (in words),"[1]; combination of cell grafting and local administration, 24 hours after operation",recovery
same,BrdU incorporation,[2],increased
same,number of cells that incorporated BrdU,[2],increased
same,concentrations at which the binding of the labeled des-acyl ghrelin was displaced,[3],≥ 10^-3 M
same,IC50,[3]; 4 °C for an hour,23.5 nM
same,BrdU incorporation into the cells (in words),[4]; 0.03 to 3 nM,increased
same,"BrdU incorporation into the cells, Mean",[4]; Concentration 0.03 nM,113.6
same,"BrdU incorporation into the cells, Mean",[4]; Concentration 0.3 nM,112.6
same,"BrdU incorporation into the cells, Mean",[4]; Concentration 3 nM,108.2
same,concentration that could increase the BrdU incorporation into the cells,[5],≥ 3 nM
unlabelled des-acyl ghrelin (peptide),IC50,[6],23.5 nM
[^125I]-labelled des-acyl ghrelin (peptide),Bmax (fmol/mg protein),[7],8.79
